Results taken from ChEMBL document CHEMBL1201862, “PubChem BioAssay data set” (2004).
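Briefly, cells in 96-well plates were exposed to five compound concentrations for 48 h, and endpoints were estimated by linear interpolation. GI50 marks 50% less growth.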 The source made the active and inactive calls. Cut-off read from the data, not from the text of the source: active = GI50 up to about 1.1 µM and inactive = higher.

Columns and labels:
Test in all cases: DTP human tumour cell line panel, 48 h
OVCAR-4 = system: OVCAR-4
NCI-H23 = system: NCI-H23
EKVX = system: EKVX
IGROV-1 = system: IGROV-1
A549 = system: A549
SNB-19 = system: SNB-19
HL-60 = system: HL-60
M14 = system: M14
K562 = system: K562
DLD-1 = system: DLD-1
KM12 = system: KM12
HCT-116 = system: HCT-116
SF-539 = system: SF-539
HOP-92 = system: HOP-92
CCRF-CEM = system: CCRF-CEM
MOLT-4 = system: MOLT-4
786-0 = system: 786-0
SNB-75 = system: SNB-75
LXFL 529 = system: LXFL 529
U-251 = system: U-251
RXF 393 = system: RXF 393
RXF 631 = system: RXF 631
DMS-114 = system: DMS-114
ACHN = system: ACHN
UO-31 = system: UO-31
UACC-257 = system: UACC-257
NCI-H460 = system: NCI-H460
SW-620 = system: SW-620
HT-29 = system: HT-29
HCC 2998 = system: HCC 2998
OVCAR-3 = system: OVCAR-3
M19-MEL = system: M19-MEL
DMS-273 = system: DMS-273
COLO 205 = system: COLO 205
HOP-18 = system: HOP-18
HCT-15 = system: HCT-15
SF-295 = system: SF-295
SNB-78 = system: SNB-78
UACC-62 = system: UACC-62
OVCAR-5 = system: OVCAR-5
SK-MEL-2 = system: SK-MEL-2
RPMI-8226 = system: RPMI-8226
SK-OV-3 = system: SK-OV-3
SF-268 = system: SF-268
OVCAR-8 = system: OVCAR-8
SN12C = system: SN12C
TK-10 = system: TK-10
HOP-62 = system: HOP-62
KM-20L2 = system: KM-20L2
LOX IMVI = system: LOX IMVI
Malme-3M = system: Malme-3M
NCI-H522 = system: NCI-H522
A498 = system: A498
NCI-H226 = system: NCI-H226
CAKI-1 = system: CAKI-1
SK-MEL-5 = system: SK-MEL-5
SK-MEL-28 = system: SK-MEL-28
SR = system: SR
XF498 = system: XF498

In the case of `COC(=O)C(C(=O)C(=O)Nc1c(Cl)cc([N+](=O)[O-])cc1Cl)c1nc2cc(C)c(C)cc2nc1O` (configuration not stated), the GI50 (OVCAR-4) is reported as > 100 µM (inactive), the GI50 (NCI-H23) is reported as > 100 µM (inactive) and the GI50 (EKVX) is reported as 38.9 µM (inactive). For the same compound, the GI50 (IGROV-1) was > 100 µM (inactive), the GI50 (A549) was > 100 µM (inactive) and the GI50 (SNB-19) was > 100 µM (inactive). The GI50 (HL-60) was > 100 µM (inactive), the GI50 (M14) was > 100 µM (inactive) and the GI50 (K562) was > 100 µM (inactive). The GI50 (DLD-1) was > 100 µM (inactive), the GI50 (KM12) was > 100 µM (inactive) and the GI50 (HCT-116) was > 100 µM (inactive). For the same compound, the GI50 (SF-539) was > 100 µM (inactive), the GI50 (HOP-92) was 47.8 µM (inactive) and the GI50 (CCRF-CEM) was > 100 µM (inactive). The GI50 (MOLT-4) was > 100 µM (inactive), the GI50 (786-0) was > 100 µM (inactive) and the GI50 (SNB-75) was 86.5 µM (inactive). The GI50 (LXFL 529) was > 100 µM (inactive), the GI50 (U-251) was > 100 µM (inactive) and the GI50 (RXF 393) was > 100 µM (inactive). For the same compound, the GI50 (RXF 631) was > 100 µM (inactive), the GI50 (DMS-114) was 76.4 µM (inactive) and the GI50 (ACHN) was > 100 µM (inactive). For the same compound, the GI50 (UO-31) was > 100 µM (inactive), the GI50 (UACC-257) was > 100 µM (inactive) and the GI50 (NCI-H460) was > 100 µM (inactive). The GI50 (SW-620) was > 100 µM (inactive), the GI50 (HT-29) was > 100 µM (inactive) and the GI50 (HCC 2998) was > 100 µM (inactive). For the same compound, the GI50 (OVCAR-3) was > 100 µM (inactive), the GI50 (M19-MEL) was > 100 µM (inactive) and the GI50 (DMS-273) was > 100 µM (inactive). The GI50 (COLO 205) was > 100 µM (inactive), the GI50 (HOP-18) was 72.6 µM (inactive) and the GI50 (HCT-15) was greater than 100 µM. For the same compound, the GI50 (SF-295) was > 100 µM (inactive), the GI50 (SNB-78) was > 100 µM (inactive) and the GI50 (UACC-62) was 59.2 µM (inactive). For the same compound, the GI50 (OVCAR-5) was > 100 µM (inactive), the GI50 (SK-MEL-2) was > 100 µM (inactive) and the GI50 (RPMI-8226) was > 100 µM (inactive). For the same compound, the GI50 (SK-OV-3) was > 100 µM (inactive), the GI50 (SF-268) was > 100 µM (inactive) and the GI50 (OVCAR-8) was > 100 µM (inactive). For the same compound, the GI50 (SN12C) was > 100 µM (inactive), the GI50 (TK-10) was > 100 µM (inactive) and the GI50 (HOP-62) was > 100 µM (inactive). For the same compound, the GI50 (KM-20L2) was > 100 µM (inactive), the GI50 (LOX IMVI) was > 100 µM (inactive) and the GI50 (Malme-3M) was > 100 µM (inactive). For the same compound, the GI50 (NCI-H522) was > 100 µM (inactive), the GI50 (A498) was 44.9 µM (inactive) and the GI50 (NCI-H226) was > 100 µM (inactive). The GI50 (CAKI-1) was > 100 µM (inactive).
For `CCCCC1CC(c2cccc([N+](=O)[O-])c2)=NO1` (configuration not stated), the GI50 (OVCAR-4) was > 100 µM (inactive), the GI50 (NCI-H23) was 80.9 µM (inactive) and the GI50 (EKVX) was 58.2 µM (inactive). The GI50 (IGROV-1) was > 100 µM (inactive), the GI50 (A549) was 30.5 µM (inactive) and the GI50 (SNB-19) was > 100 µM (inactive). The GI50 (HL-60) was 30.4 µM (inactive), the GI50 (M14) was > 100 µM (inactive) and the GI50 (SK-MEL-5) was 43.1 µM (inactive). For the same compound, the GI50 (K562) was 60.8 µM (inactive), the GI50 (SK-MEL-28) was > 100 µM (inactive) and the GI50 (DLD-1) was > 100 µM (inactive). The GI50 (KM12) was > 100 µM (inactive), the GI50 (HCT-116) was > 100 µM (inactive) and the GI50 (SF-539) was > 100 µM (inactive). The GI50 (HOP-92) was > 100 µM (inactive), the GI50 (SR) was > 100 µM (inactive) and the GI50 (CCRF-CEM) was 48.5 µM (inactive). For the same compound, the GI50 (MOLT-4) was 36.4 µM (inactive), the GI50 (786-0) was > 100 µM (inactive) and the GI50 (SNB-75) was > 100 µM (inactive). For the same compound, the GI50 (LXFL 529) was 56.5 µM (inactive), the GI50 (U-251) was 83.2 µM (inactive) and the GI50 (RXF 631) was 80.7 µM (inactive). For the same compound, the GI50 (DMS-114) was 40.6 µM (inactive), the GI50 (ACHN) was > 100 µM (inactive) and the GI50 (UO-31) was 50.9 µM (inactive). For the same compound, the GI50 (UACC-257) was 48.3 µM (inactive), the GI50 (NCI-H460) was 75.5 µM (inactive) and the GI50 (SW-620) was > 100 µM (inactive). The GI50 (HT-29) was 28.6 µM (inactive), the GI50 (HCC 2998) was 58.5 µM (inactive) and the GI50 (OVCAR-3) was 76.2 µM (inactive). For the same compound, the GI50 (M19-MEL) was 74.6 µM (inactive), the GI50 (DMS-273) was > 100 µM (inactive) and the GI50 (COLO 205) was > 100 µM (inactive). For the same compound, the GI50 (HOP-18) was 80.4 µM (inactive), the GI50 (HCT-15) was greater than 100 µM and the GI50 (SF-295) was 97.7 µM (inactive). For the same compound, the GI50 (SNB-78) was > 100 µM (inactive), the GI50 (UACC-62) was 54.8 µM (inactive) and the GI50 (OVCAR-5) was > 100 µM (inactive). For the same compound, the GI50 (SK-MEL-2) was > 100 µM (inactive), the GI50 (RPMI-8226) was 74.3 µM (inactive) and the GI50 (SK-OV-3) was > 100 µM (inactive). For the same compound, the GI50 (SF-268) was > 100 µM (inactive), the GI50 (OVCAR-8) was 70.3 µM (inactive) and the GI50 (SN12C) was > 100 µM (inactive). The GI50 (TK-10) was > 100 µM (inactive), the GI50 (HOP-62) was > 100 µM (inactive) and the GI50 (KM-20L2) was > 100 µM (inactive). For the same compound, the GI50 (Malme-3M) was > 100 µM (inactive), the GI50 (NCI-H522) was 29.5 µM (inactive) and the GI50 (A498) was 49.2 µM (inactive). For the same compound, the GI50 (NCI-H226) was > 100 µM (inactive) and the GI50 (CAKI-1) was 63.5 µM (inactive).
In the case of `CCc1cccc(CC)c1NC(=O)CC1SC(N)=NC1=O` (configuration not stated), the GI50 (OVCAR-4) is reported as > 100 µM (inactive), the GI50 (NCI-H23) is reported as > 100 µM (inactive) and the GI50 (EKVX) is reported as > 100 µM (inactive). The GI50 (IGROV-1) was > 100 µM (inactive), the GI50 (XF498) was > 100 µM (inactive) and the GI50 (A549) was > 100 µM (inactive). The GI50 (SNB-19) was > 100 µM (inactive), the GI50 (HL-60) was > 100 µM (inactive) and the GI50 (M14) was > 100 µM (inactive). The GI50 (SK-MEL-5) was > 100 µM (inactive), the GI50 (K562) was > 100 µM (inactive) and the GI50 (SK-MEL-28) was > 100 µM (inactive). For the same compound, the GI50 (KM12) was > 100 µM (inactive), the GI50 (HCT-116) was > 100 µM (inactive) and the GI50 (SF-539) was > 100 µM (inactive). The GI50 (HOP-92) was > 100 µM (inactive), the GI50 (SR) was 97.5 µM (inactive) and the GI50 (CCRF-CEM) was > 100 µM (inactive). The GI50 (MOLT-4) was > 100 µM (inactive), the GI50 (786-0) was > 100 µM (inactive) and the GI50 (SNB-75) was > 100 µM (inactive). For the same compound, the GI50 (LXFL 529) was > 100 µM (inactive), the GI50 (U-251) was > 100 µM (inactive) and the GI50 (RXF 393) was > 100 µM (inactive). For the same compound, the GI50 (RXF 631) was > 100 µM (inactive), the GI50 (DMS-114) was > 100 µM (inactive) and the GI50 (ACHN) was > 100 µM (inactive). For the same compound, the GI50 (UO-31) was > 100 µM (inactive), the GI50 (UACC-257) was > 100 µM (inactive) and the GI50 (NCI-H460) was > 100 µM (inactive). The GI50 (SW-620) was > 100 µM (inactive), the GI50 (HT-29) was > 100 µM (inactive) and the GI50 (HCC 2998) was > 100 µM (inactive). For the same compound, the GI50 (OVCAR-3) was > 100 µM (inactive), the GI50 (M19-MEL) was > 100 µM (inactive) and the GI50 (DMS-273) was > 100 µM (inactive). For the same compound, the GI50 (COLO 205) was > 100 µM (inactive), the GI50 (HOP-18) was > 100 µM (inactive) and the GI50 (HCT-15) was greater than 100 µM. For the same compound, the GI50 (SF-295) was > 100 µM (inactive), the GI50 (SNB-78) was > 100 µM (inactive) and the GI50 (UACC-62) was > 100 µM (inactive). The GI50 (OVCAR-5) was > 100 µM (inactive), the GI50 (SK-MEL-2) was > 100 µM (inactive) and the GI50 (RPMI-8226) was > 100 µM (inactive). The GI50 (SK-OV-3) was > 100 µM (inactive), the GI50 (SF-268) was > 100 µM (inactive) and the GI50 (OVCAR-8) was > 100 µM (inactive). For the same compound, the GI50 (SN12C) was > 100 µM (inactive), the GI50 (TK-10) was > 100 µM (inactive) and the GI50 (HOP-62) was > 100 µM (inactive). For the same compound, the GI50 (LOX IMVI) was > 100 µM (inactive), the GI50 (Malme-3M) was > 100 µM (inactive) and the GI50 (NCI-H522) was > 100 µM (inactive). For the same compound, the GI50 (A498) was > 100 µM (inactive) and the GI50 (NCI-H226) was > 100 µM (inactive).
